Source: ChEMBL document CHEMBL1201862, “PubChem BioAssay data set” (2004)
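Cultured in 96-well plates, cells were exposed to test compound for 48 hours across five concentrations. GI50 marks 50% less growth.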 Active and inactive are the calls of the source. Cut-off read from the data, not from the text of the source: active = GI50 up to about 1.1 µM and inactive = higher.

Legend:
Experiment in all cases: growth of human tumour cells (NCI), 48 h
HCT-116 = system: HCT-116
UACC-62 = system: UACC-62
DU-145 = system: DU-145
SNB-75 = system: SNB-75
NCI/ADR-RES = system: NCI/ADR-RES
HCC 2998 = system: HCC 2998
SK-MEL-28 = system: SK-MEL-28
HOP-62 = system: HOP-62
786-0 = system: 786-0
HT-29 = system: HT-29
MDA-MB-435 = system: MDA-MB-435
SNB-19 = system: SNB-19
MDA-MB-231 = system: MDA-MB-231
OVCAR-3 = system: OVCAR-3
COLO 205 = system: COLO 205
SW-620 = system: SW-620
CAKI-1 = system: CAKI-1
NCI-H522 = system: NCI-H522
RPMI-8226 = system: RPMI-8226
SR = system: SR

Measured: GI50

Cc1ccc2nc(N/N=C/c3sccc3C)cc(C)c2c1
inactive: HCT-116 42.6 µM | UACC-62 > 100 µM | DU-145 > 100 µM | SNB-75 38.7 µM | NCI/ADR-RES > 100 µM | HCC 2998 > 100 µM | SK-MEL-28 > 100 µM | HOP-62 29.3 µM | 786-0 29.2 µM | HT-29 5.48 µM | MDA-MB-435 > 100 µM | SNB-19 48.2 µM | MDA-MB-231 14.7 µM | OVCAR-3 > 100 µM | COLO 205 > 100 µM | SW-620 > 100 µM | CAKI-1 > 100 µM

C/C=C/[C@@]1(OC(=O)c2ccccc2)C[C@@H]2CCCC[C@@H]21
inactive: NCI-H522 15.7 µM | HCT-116 16 µM | UACC-62 16.7 µM | DU-145 17.5 µM | SNB-75 14.2 µM | NCI/ADR-RES 20.5 µM | HCC 2998 21.1 µM | SK-MEL-28 17.9 µM | RPMI-8226 16.6 µM | HOP-62 15.5 µM | 786-0 17.7 µM | HT-29 16.3 µM | SNB-19 17.3 µM | MDA-MB-231 20.6 µM | SR 18.1 µM | SW-620 23 µM | CAKI-1 17.6 µM

CCn1c(CCCc2nc3c(=O)n(C)c(=O)n(C)c3[nH]2)nc2c1c(=O)n(C)c(=O)n2C
inactive: NCI-H522 > 100 µM | HCT-116 > 100 µM | UACC-62 > 100 µM | DU-145 > 100 µM | NCI/ADR-RES > 100 µM | HCC 2998 > 100 µM | SK-MEL-28 > 100 µM | RPMI-8226 > 100 µM | HOP-62 > 100 µM | 786-0 > 100 µM | HT-29 > 100 µM | MDA-MB-435 > 100 µM | SNB-19 > 100 µM | MDA-MB-231 > 100 µM | OVCAR-3 > 100 µM | COLO 205 12.1 µM | SW-620 > 100 µM | CAKI-1 > 100 µM

Cc1ccccc1C(O)(c1nccn1C)c1nccn1C
inactive: NCI-H522 > 100 µM | HCT-116 > 100 µM | UACC-62 > 100 µM | DU-145 > 100 µM | SNB-75 > 100 µM | NCI/ADR-RES > 100 µM | HCC 2998 > 100 µM | SK-MEL-28 > 100 µM | HOP-62 > 100 µM | 786-0 > 100 µM | HT-29 > 100 µM | MDA-MB-435 > 100 µM | SNB-19 > 100 µM | OVCAR-3 > 100 µM | SR > 100 µM | COLO 205 > 100 µM | SW-620 > 100 µM | CAKI-1 > 100 µM

COc1cc(C2SC(=N)Nc3c2c(C)nn3C(=O)Cc2ccccc2)cc(OC)c1OC (stereo not given)
inactive: NCI-H522 > 100 µM | HCT-116 > 100 µM | UACC-62 > 100 µM | DU-145 > 100 µM | SNB-75 28.4 µM | HCC 2998 > 100 µM | SK-MEL-28 > 100 µM | RPMI-8226 > 100 µM | HOP-62 > 100 µM | 786-0 > 100 µM | HT-29 > 100 µM | MDA-MB-435 > 100 µM | SNB-19 > 100 µM | MDA-MB-231 > 100 µM | SR > 100 µM | COLO 205 > 100 µM | SW-620 > 100 µM | CAKI-1 > 100 µM

NNc1ncnc2cccc(Cl)c12
inactive: NCI-H522 > 100 µM | HCT-116 > 100 µM | UACC-62 > 100 µM | DU-145 > 100 µM | SNB-75 > 100 µM | NCI/ADR-RES > 100 µM | HCC 2998 > 100 µM | SK-MEL-28 > 100 µM | HOP-62 > 100 µM | 786-0 > 100 µM | HT-29 > 100 µM | SNB-19 > 100 µM | MDA-MB-231 > 100 µM | OVCAR-3 > 100 µM | SR > 100 µM | COLO 205 > 100 µM | SW-620 > 100 µM | CAKI-1 > 100 µM

CCOC(=O)C1C(c2ccco2)C2(C#N)C(=N)OC1(C)C2(C#N)C#N (stereo not given)
inactive: NCI-H522 > 100 µM | HCT-116 > 100 µM | UACC-62 > 100 µM | DU-145 > 100 µM | SNB-75 57.7 µM | NCI/ADR-RES > 100 µM | HCC 2998 > 100 µM | RPMI-8226 > 100 µM | 786-0 > 100 µM | HT-29 > 100 µM | MDA-MB-435 > 100 µM | SNB-19 > 100 µM | MDA-MB-231 > 100 µM | COLO 205 > 100 µM | SW-620 > 100 µM | CAKI-1 > 100 µM

COc1cc2c(cc1C)NC(=O)/C2=C\c1ccncc1
inactive: NCI-H522 2.94 µM | HCT-116 2.34 µM | UACC-62 5.53 µM | DU-145 3.09 µM | SNB-75 13.4 µM | NCI/ADR-RES 3.58 µM | HCC 2998 12.3 µM | SK-MEL-28 11.1 µM | HOP-62 6.97 µM | 786-0 5.35 µM | HT-29 4.92 µM | MDA-MB-435 4.14 µM | SNB-19 5.2 µM | OVCAR-3 3.9 µM | SR 2.61 µM | COLO 205 7.19 µM | SW-620 4.49 µM | CAKI-1 3.57 µM
